Results: the NIST ThermoML archive (doi:10.1016/j.tca.2014.07.022)

Assay: xn = mol fraction of the nth substance listed
Settings: 100 kPa, Liquid; for viscosity: Concentric cylinders viscometry; for mass density: Vibrating tube method

CC(=O)CC(C)C [4-methylpentan-2-one] + CC(C)O
Settings	mass density [kg/m3]	viscosity [mPa·s]
293.15 K, x1 = 0.067	786.4	1.722
293.15 K, x1 = 0.1344	787.5	1.361
293.15 K, x1 = 0.2044	788.6	1.141
293.15 K, x1 = 0.3035	790.2	0.962
293.15 K, x1 = 0.3848	791.4	0.856
293.15 K, x1 = 0.5098	793.4	0.737
293.15 K, x1 = 0.5987	794.7	0.691
293.15 K, x1 = 0.6986	796.3	0.651
293.15 K, x1 = 0.8138	798	0.619
293.15 K, x1 = 0.9278	799.8	0.605
293.15 K, x1 = 1	800.8	0.588
298.15 K, x1 = 0.067	782.1	1.516
298.15 K, x1 = 0.1344	783.1	1.217
298.15 K, x1 = 0.2044	784.1	1.029
298.15 K, x1 = 0.3035	785.6	0.877
298.15 K, x1 = 0.3848	786.8	0.784
298.15 K, x1 = 0.5098	788.6	0.684
298.15 K, x1 = 0.5987	790	0.64
298.15 K, x1 = 0.6986	791.5	0.608
298.15 K, x1 = 0.8138	793.2	0.581
298.15 K, x1 = 0.9278	795	0.568
298.15 K, x1 = 1	796.1	0.554
303.15 K, x1 = 0.067	777.7	1.346
303.15 K, x1 = 0.1344	778.6	1.09
303.15 K, x1 = 0.2044	779.6	0.932
303.15 K, x1 = 0.3035	781	0.8
303.15 K, x1 = 0.3848	782.2	0.725
303.15 K, x1 = 0.5098	784	0.638
303.15 K, x1 = 0.5987	785.4	0.601
303.15 K, x1 = 0.6986	786.9	0.571
303.15 K, x1 = 0.8138	788.7	0.547
303.15 K, x1 = 0.9278	790.5	0.534
303.15 K, x1 = 1	791.6	0.523
308.15 K, x1 = 0.067	773.2	1.19
308.15 K, x1 = 0.1344	774.1	0.985
308.15 K, x1 = 0.2044	775	0.849
308.15 K, x1 = 0.3035	776.4	0.736
308.15 K, x1 = 0.3848	777.5	0.669
308.15 K, x1 = 0.5098	779.3	0.594
308.15 K, x1 = 0.5987	780.7	0.562
308.15 K, x1 = 0.6986	782.2	0.536
308.15 K, x1 = 0.8138	784	0.515
308.15 K, x1 = 0.9278	785.7	0.503
308.15 K, x1 = 1	786.9	0.493
313.15 K, x1 = 0.067	768.7	1.059
313.15 K, x1 = 0.1344	769.5	0.884
313.15 K, x1 = 0.2044	770.4	0.769
313.15 K, x1 = 0.3035	771.8	0.675
313.15 K, x1 = 0.3848	772.9	0.619
313.15 K, x1 = 0.5098	774.7	0.555
313.15 K, x1 = 0.5987	776	0.528
313.15 K, x1 = 0.6986	777.5	0.505
313.15 K, x1 = 0.8138	779.3	0.486
313.15 K, x1 = 0.9278	781.1	0.473
313.15 K, x1 = 1	782.3	0.463
318.15 K, x1 = 0.067	764.1	0.949
318.15 K, x1 = 0.1344	764.8	0.799
318.15 K, x1 = 0.2044	765.7	0.695
318.15 K, x1 = 0.3035	767	0.615
318.15 K, x1 = 0.3848	768.1	0.565
318.15 K, x1 = 0.5098	769.9	0.516
318.15 K, x1 = 0.5987	771.2	0.495
318.15 K, x1 = 0.6986	772.7	0.475
318.15 K, x1 = 0.8138	774.6	0.459
318.15 K, x1 = 0.9278	776.4	0.447
318.15 K, x1 = 1	777.6	0.437
323.15 K, x1 = 0.067	759.4	0.845
323.15 K, x1 = 0.1344	760.2	0.718
323.15 K, x1 = 0.2044	761	0.629
323.15 K, x1 = 0.3035	762.3	0.56
323.15 K, x1 = 0.3848	763.4	0.52
323.15 K, x1 = 0.5098	765.2	0.48
323.15 K, x1 = 0.5987	766.5	0.462
323.15 K, x1 = 0.6986	768.1	0.448
323.15 K, x1 = 0.8138	769.9	0.435
323.15 K, x1 = 0.9278	771.8	0.422
323.15 K, x1 = 1	773	0.41
